Assay results: publication PMC5958115, “A novel small molecule chaperone of rod opsin and its potential therapy for retinal degeneration” (Nature Communications, 2018)
Where two headings read alike, the source gives them in different places.

Legend:
[1] = target: mouse P23H-opsin mutant (Mus musculus, UniProt P15409, P23H); assay: β-Gal fragment complementation assay: rescue of P23H opsin transport from ER to plasma membrane, U2OS(PLC-EA/P23H-PK) cells; format: cell-based; details: for β-Gal fragment complementation assay Activity score (%) Max (fit) / Efficacy: 24 h, 5 µM 9-cis-retinal = 100%, from curve fitting; for dependence of activity on light: cells exposed to light vs dark; for Efficacy (%): normalized to 5 µM 9-cis-retinal
Source text: U2OS(PLC-EA/P23H-PK) cells. A U2OS stable cell line was generated by DiscoveRx, Inc. (Fremont, CA, USA) for the β-Gal fragment complementation assay used in the small-molecule HTS for rescue of P23H-opsin transport. U2OS cells that continually express P23H-PK and PLC-EA fusion proteins were generated. Briefly, this small subunit of β-Gal (PK fragment) was fused to the C-terminal of the mouse P23H-opsin mutant, while the large EA fragment, a subunit of β-Gal, was fused with PLC, a plasma membrane-anchored peptide. Both constructs were subcloned by DicoveRx, Inc. and transferred into U2OS cells by viral infections. Positive clones were selected under treatment with hygromycin and geneticin.
Briefly, U2OS(PLC-EA /P23H-PK) cells were suspended in assay medium at 3 × 10^5 cells mL^−1. The cell suspension was dispensed into 384-well plates (Greiner Bio-one, Monroe, NC, USA) at 20 µL per well, with a Multidrop dispenser (Thermo Scientific, Waltham, MA, USA). Plates with cells then were centrifuged at 200×g for 15 s before incubation at 37 °C with 5% CO2. Plates were removed 24 h later for treatment with tested compounds. A total of 248 plates containing 79,080 compounds from three small-molecule libraries were paired with an equal number of assay plates with cultured cells. Owing to a limited capacity, these plates were assayed in seven batches. An average of 56.3 nL of 10 mM compound in DMSO was dispensed into each well from column 3 to 22 of paired assay plates using a 50 nL 384-pintool system, such that the final concentration of each compound was 22.52 µM on average. […] Each assay plate was shaken for 5 s before further incubation at 37 °C with 5% CO2. After 24 h, assay plates were removed, and each well was incubated with 25 µL of 1× Gal-Screen assay buffer (1:24 substrate-buffer ratio). Assay plates were incubated in the dark for 60–90 min, and luminescence was read from each assay plate with an Envision microplate reader (PerkinElmer) during a 0.1 s per well integration time. The mean and s.d. of readouts in column 2 of each plate were calculated as Mean0% and SD0%, whereas the average and s.d. of readouts in column 23 were calculated as Mean100% and SD100%. Eq. 1: Activity scores (%) = (RLUcp − Mean0%)/(Mean100% − Mean0%) × 100%, where RLUcp is the relative luminescence unit derived for cells treated with a compound. Eq. 2: Z′-factor = 1–3 × (SD0% + SD100%)/(Mean100% − Mean0%)[32]; Eq. 3: signal-to-background (S/B) ratio = Mean100%/Mean0%. Activities of all tested compounds were registered with their compound ID by GeneData Screener (Genedata, Basel, Switzerland) and Pipeline Pilot software (Accelrys, San Diego, CA, USA). Hits, cherry-picked from a separate stock dose-dependent activity test, were selected with an activity score cutoff at 20%. Activity of each hit was tested again with the β-Gal fragment complementation assay in a 10-dose series with each dose tested in triplicate. The 10 doses tested were 80, 40, 20, 10, 5, 2.5, 1.25, 0.625, 0.313, and 0.156 µM. Dose-dependent curves of each hit compound were fitted with GeneData and Origin software.
Detailed synthetic steps are described in Supplementary Note and Supplementary Fig. 9. […] YC-002-YC-021 were purchased from commercial vendors including Enamine LLC (Monmouth Jct., NJ, USA), Matrix Scientific (Columbia, SC, USA) and Tokyo Chemical Industry Co., Ltd. (Portland, OR, USA). […] Activities of YC compounds were tested with the β-Gal fragment complementation assay, as described in a prior section. All YC compounds were tested at 10 doses, each in triplicate: 80, 40, 20, 10, 5, 2.5, 1.25, 0.625, 0.313, and 0.156 µM.

[2] = target: T1, bovine rod opsin (Bos taurus, UniProt P02699); assay: Gt activation assay (GTPγS-induced fluorescence change); format: biochemical
T1 construct: Constitutive activity of bovine opsin in disc membranes; from tissue; host or cells: bovine retina ROS membranes (opsin membranes and purified Gt)
Description: Gt was extracted and purified from frozen bovine ROS membranes as described in Preparation of Opsin Membranes. The intrinsic increase in the fluorescence from Gtα was measured with a L55 luminescence spectrophotometer (PerkinElmer Life Sciences) using an excitation and emission wavelengths of 300 and 345 nm, respectively[39],[40]. […] DMSO-treated opsin membranes were used to obtain a baseline for the basal activity of opsin. The molar ratio of opsin to Gt was 1:10, with opsin at a concentration of 100 nM and Gt at 1000 nM. […] This step was followed by the addition of 300 μM GTPγS (Sigma-Aldrich) to determine the GTPγS-induced complex dissociation and corresponding fluorescence changes. Gt activation rates were determined and plotted for the first 100 s of the Gt activation assay[40],[67].

[3] = target: T2, bovine opsin (Bos taurus, UniProt P02699); assay: Isorhodopsin pigment regeneration in ROS disc membranes (absorbance at 487 nm); format: biochemical; details: for competition with 9-cis-retinal in the chromophore-binding pocket: added simultaneously or sequentially with 9-cis-retinal
T2 construct: ROS membranes were isolated from bovine retinas under dim red light; from tissue; host or cells: bovine retina, rod outer segment (ROS) disc membranes, bleached with hydroxylamine
Description: ROS membranes containing opsin were suspended in buffer composed of 20 mM BTP, pH 7.5, and 100 mM NaCl at a final concentration of 2.5 µM. […] Membranes then were solubilized with 20 mM DDM for 10 min at RT and UV–visible spectra of these samples were measured. To follow the kinetics of isorhodopsin regeneration, opsin membranes were treated with 0, 20, or 60 µM YC-001 for 15 min at RT. […] UV–visible spectra of the samples were measured every 2 min until 2 h of reaction time at RT. Each condition was repeated three times. The time course of isorhodopsin regeneration was fitted by a second-order exponential decay and apparent half-lives were obtained at the time when reaction reached half of the end-point product.
Alternatively, opsin incubated with the above ligands was purified by 1D4-immunoaffinity chromatography. […] After washing, opsin samples were eluted by addition of 1D4 peptide ([…]) to the above buffer and their spectra were measured with a UV–visible spectrophotometer.
To test whether YC-001 stabilizes rod opsin, opsin samples (2.5 µM) were incubated with or without 10 µM YC-001 for 15 min, followed by solubilization in 20 mM DDM. […] UV–visible spectra of these samples then were measured.

[4] = 24 h preincubation, activity standardized to 5 µM 9-cis-retinal as 100%, Hill fit, read-out: β-Gal fragment complementation assay Activity score (%) EC50

T1 sequence (P02699 whole entry): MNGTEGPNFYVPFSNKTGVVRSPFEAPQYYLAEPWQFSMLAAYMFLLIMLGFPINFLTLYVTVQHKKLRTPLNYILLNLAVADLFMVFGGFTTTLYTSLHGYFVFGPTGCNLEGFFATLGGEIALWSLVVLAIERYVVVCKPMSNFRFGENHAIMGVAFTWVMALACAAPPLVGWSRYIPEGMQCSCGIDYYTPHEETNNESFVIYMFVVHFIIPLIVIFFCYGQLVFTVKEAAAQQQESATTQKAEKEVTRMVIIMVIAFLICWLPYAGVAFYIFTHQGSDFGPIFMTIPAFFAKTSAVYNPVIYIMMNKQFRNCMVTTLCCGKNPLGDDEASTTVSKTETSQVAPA
T2 sequence (P02699 whole entry): as above

| SMILES | β-Gal fragment complementation assay Activity score (%) Max (fit) / Efficacy [1] | EC50 [1, 4] | dependence of activity on light [1] | initial rate of Gt activation, ln(kinitial) ([2]; isorhodopsin regenerated by 40 µM 9-cis-retinal alone, upon illumination) | activity in rescuing P23H-opsin transport (in words) [1] | competition with 9-cis-retinal in the chromophore-binding pocket [3] | efficacy, % of the control activity score ([1]; HTS hits, variability between experiments) | effect of co-treatment with 9-cis-retinal ([1]; YC-001 dose series together with 5 µM 9-cis-retinal) | Efficacy (%) ([1]; modifications at C4) | EC50 ([1]; modifications linked to C3 of the furan-2(5H)-one ring, 10 doses 0.156-80 µM, read-out: Potency EC50) | Efficacy (%) ([1]; modifications of the furan-2(5H)-one ring) | Efficacy (%) ([1]; more than one site modified) | time to maximum activity ([1]; time course, Fig. 1f) | half-life of rod opsin aging at RT ([3]; 10 µM YC-001 vs opsin alone, 0-6 h) | total amount of regenerated isorhodopsin pigment at the end of the reaction ([3]; increasing YC-001, sequential 9-cis-retinal) | reversibility of interaction with opsin ([3]; opsin/isorhodopsin purification after treatment) | IC50 ([3]; read-out: IC50, regenerated isorhodopsin) | initial rate of Gt activation, ln(kinitial) ([2]; 40 µM compound, constitutive activity of opsin, DMSO control −5.3) | initial rate of Gt activation, ln(kinitial) ([2]; co-treated with 40 µM 9-cis-retinal and 40 µM YC-001, upon illumination) |
| --- | --- | --- | --- | --- | --- | --- | --- | --- | --- | --- | --- | --- | --- | --- | --- | --- | --- | --- | --- |
| CC1=C(/C=C/C(C)=C\C=C\C(C)=C\C=O)C(C)(C)CCC1 [9-cis-retinal, reference compound] | 159% | 2.7 µM | required that cells be incubated in the dark | −4.6 | – | – | – | – | – | – | – | – | – | – | – | – | – | – | – |
| O=C(CCCCCN1C(=O)c2cccc3cccc(c23)C1=O)NO [Scriptaid, reference compound] | 98.2% | 3.09 µM | – | – | strong activity in rescuing P23H opsin transport | does not compete with 9-cis-retinal | – | – | – | – | – | – | – | – | – | – | – | – | – |
| O=C1OCC(c2ccc(Cl)s2)=C1c1cccs1 [YC-001] | 310% | 8.7 µM | not affected | – | – | competing with 9-cis-retinal in a short timeframe | 150–310% | No additive effect | 248% | 8.39 µM | 248% | 248% | ≤ 15 h | significantly longer half-life | did not affect | reversible | 11.4 µM | −6.1 | −4.9 |
